Measurements: article PMC2994711, “Homodimerization of the Death-Associated Protein Kinase Catalytic Domain: Development of a New Small Molecule Fluorescent Reporter” (PLoS ONE, 2010)
Where two headings read alike, the source gives them in different places.

How the values were obtained:
Format in all cases: binding
[1] = target: T1, DAPK catalytic domain (DAPKwt, residues 1–285) (Homo sapiens, UniProt P53355); assay: Fluorescence polarization titration of the fluorescent probe with DAPKwt
T1 construct: encoding the DAPK catalytic domain (DAPKwt, open reading frame residues 1–285); Strep-tag (pASK-IBA3 vector; purified on streptactin resin) (C); made in house; host or cells: Escherichia coli DH5α
T1 sequence (P53355 1-285): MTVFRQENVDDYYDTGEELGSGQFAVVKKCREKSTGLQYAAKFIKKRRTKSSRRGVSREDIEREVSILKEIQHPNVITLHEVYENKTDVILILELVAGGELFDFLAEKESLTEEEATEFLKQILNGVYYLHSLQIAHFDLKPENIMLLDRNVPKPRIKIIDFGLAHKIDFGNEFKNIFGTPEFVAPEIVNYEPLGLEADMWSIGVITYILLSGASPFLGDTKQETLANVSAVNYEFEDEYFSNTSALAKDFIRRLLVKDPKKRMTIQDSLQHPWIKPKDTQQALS
Protocol: (§1) Fluorescence polarization assays were performed using a Victor 3 apparatus (Perkin-Elmer Waltham, MA). The Lissamine Rhodamine B peptides based library (UMR 7200 CNRS, Strasbourg, France, Patent WO/2006/003330 [14]) was diluted in the assay buffer (50 mM HEPES, 150 mM KCl, 1 mM MgCl2, pH 7.5) to a working concentration of 0.2 µM. 15 µl of these dilutions were transferred to each well of the assay plate (Corning Costar 96-well black polystyrene plates, Model 3686, Corning, Acton, MA). All pipetting in HTS was performed on a Biomek® 2000 (Beckman Coulter, Fullerton, CA). Fluorescent polarization degrees (mFP) were measured at an excitation and emission wavelength of 530 and 610 nm, respectively. 15 µl of the assay buffer with DAPK, at a concentration of 4 µM, were added to each well. For each plate, background correction was performed with blank control wells containing no compounds.
(§2) All titration measurements were performed on a FlexStation 3 (Molecular Devices Union City, CA). The other experimental conditions were described in section “HTS of fluorescent peptides based library”. A twofold dilution cascade of the protein between 200 µM and 0.8 µM was prepared and 10 µl of these solutions were dispatched in 96-well assay plates. 10 µl of the probe solution (0.2 µM of CHPO 187-3-H11-para in assay buffer) were added to the wells and fluorescent polarization was recorded as specified before. Subsequently, 1 µl of concentrated ATP, ADP or substrate peptide (Tocris Bristol, UK) in assay buffer with 0.1 µM of the fluorescent probe was added to the wells, in order to subsequently obtain the following final concentrations of ATP, ADP or substrate peptide: 0.4, 0.8, 1.6, 3.2, 6.3, 12.5, 25, 50, and 1000 µM (the highest concentration was not performed for the peptide).
(§3) Titrations followed the same protocol as described under “ATP, ADP and substrate peptide titrations”, but under buffer conditions analogous to the ones listed under “nano-ESI-MS for the study of non-covalent complexes”. For investigations of the monomeric and the dimeric forms, NH4Ac concentrations were kept constant at 250 mM and 5 mM, respectively. To induce gradual monomerization of DAPK catalytic core, the NH4Ac concentration was stepwise augmented (5, 10, 25, 50, 100 and 250 mM) by the addition of a concentrated NH4Ac stock solution (1 M).

[2] = target: T2, mutant protein DAPKdel (ΔS52–S57) (Homo sapiens, UniProt P53355, DEL52-57); assay: Fluorescence polarization titration of the fluorescent probe with DAPKdel
T2 construct: encoding the DAPK catalytic domain (DAPKwt, open reading frame residues 1–285) or the mutant protein DAPKdel (ΔS52–S57); Strep-tag (pASK-IBA3 vector; purified on streptactin resin) (C); made in house; host or cells: Escherichia coli DH5α
T2 sequence (P53355 with tags, fused parts or gaps DEL52-57): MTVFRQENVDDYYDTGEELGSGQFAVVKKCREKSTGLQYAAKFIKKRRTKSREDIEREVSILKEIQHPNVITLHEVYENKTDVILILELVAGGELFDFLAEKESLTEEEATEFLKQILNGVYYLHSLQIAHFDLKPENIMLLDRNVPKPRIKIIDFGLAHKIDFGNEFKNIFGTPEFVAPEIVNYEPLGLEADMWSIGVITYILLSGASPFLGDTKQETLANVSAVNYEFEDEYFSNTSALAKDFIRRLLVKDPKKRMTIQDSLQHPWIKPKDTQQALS
Protocol: as §1, §2, §3

[3] = target: T3, DAPK catalytic domain (DAPKwt) (Homo sapiens, UniProt P53355); assay: Fluorescence polarization titration of fluorophore labeled ATP with DAPKwt; conditions: pH 8.8, labeled ATP 0.1 µM
T3 construct: encoding the DAPK catalytic domain (DAPKwt, open reading frame residues 1–285); Strep-tag (pASK-IBA3 vector; purified on streptactin resin) (C); made in house; host or cells: Escherichia coli DH5α
T3 sequence (P53355 1-285): as the sequence (P53355 1-285) above
Protocol: as §3
To determine the Kd values of γ-[6-Aminohexyl]-ATP-Atto495 (Jena Bioscience, Jena, Germany) its concentration was set to 0.1 µM, while the rest of the conditions were kept identical to the ones described above. Fluorescence polarization was recorded at an excitation and emission wavelength of 493 nm and 520 nm respectively.

Kd ([1]; 5 mM NH4Ac, pH 8.8, conditions favoring the dimer, probe 0.1 µM) [µM] | Kd ([1]; 50 mM HEPES, 150 mM KCl, 1 mM MgCl2, pH 7.5, absence of ATP or ADP) [µM] | Kd ([1]; 250 mM NH4Ac, pH 8.8, conditions favoring the monomer, probe 0.1 µM) [µM] | Kd ([1]; HEPES buffer pH 7.5, ATP or ADP to DAPK ratios higher than two (maximal effect)) [µM] | Kd ([2]; 5 mM NH4Ac, pH 8.8) [µM] | Kd ([2]; 250 mM NH4Ac, pH 8.8) [µM] | Kd ([2]; HEPES buffer pH 7.5, absence of ATP or ADP) [µM] | Kd ([2]; HEPES buffer pH 7.5, presence of ADP, ratio to DAPKdel higher than two) [µM] | Kd ([2]; HEPES buffer pH 7.5, presence of ATP, ratio to DAPKdel higher than two) [µM] | Kd ([3]; 5 mM NH4Ac, read-out: Kd of the labeled ATP for the DAPKwt dimer) [µM] | Kd ([3]; 250 mM NH4Ac, read-out: Kd of the labeled ATP for the DAPKwt monomer) [µM] | Molecule
16.5 ± 1.2 | 30.9 ± 2.8 | 1.5 ± 0.2 | 6.4 ± 0.54 | 3.4 | 5.5 | 20 | 33 | 28 |  |  | CCN(CC)c1ccc2c(-c3ccc(S(=O)(=O)NCCC(=O)N[C@@H](CCCNC(=N)N)C(=O)N[C@@H](Cc4ccc5ccccc5c4)C(=O)N[C@@H](CCCN)C(N)=O)cc3S(=O)(=O)[O-])c3ccc(=[N+](CC)CC)cc-3oc2c1 [CHPO 187-3-H11-para]
 |  |  |  |  |  |  |  |  | 3.98 ± 0.22 | 0.29 ± 0.011 | γ-[6-Aminohexyl]-ATP-Atto495
